Data reported in patent publication US6087358A (priority 1997, dated 2000).
Values after ≈ are worked out from the molar mass of the structure shown. Read-outs that look alike come from different tables or passages of the source.

Legend:
[1] = tested on: Mycobacterium bovis BCG (recombinant strain); assay: microbe, parasite or virus in culture; type: cell-based; settings: 6 days 37° C.; for MIC: Mycobacterium tuberculosis variant bovis BCG, BCG, 144 h, read-out: MIC, column A, 3(S) compounds
[2] = tested on: Clostridium difficile ATCC 17857; assay: In vitro inhibition of Clostridium difficile (Oxyrase broth microdilution MIC); type: cell-based; settings: Clostridioides difficile, ATCC17857; Clostridium difficile ATCC 17857, Oxyrase broth; read-out: MIC, column D, 3(S) compounds
Cryptosporidium parvum = assay: Inhibition of Cryptosporidium parvum (ELISA, infected HCT-8 monolayers); type: cell-based; settings: 48 h; for inhibition at 25 µg/mL / inhibition at 50 µg/mL / inhibition at 100 µg/mL / inhibition at 200 µg/mL: Cryptosporidium parvum, HCT-8, read-out: Percent Inhibition of C. parvum
Description: Susceptibility testing against Cryptosporidium was performed according to published procedures (K. Woods, M. Nesterenko, S. Upton, "Development of a microtiter ELISA to quantify development of Cryptosporidium parvum in vitro," FEMS Microbiology Letters, 128:89-94 (1995).
Compounds were solubilized to a concentration of 100 mg/mL in 100% DMSO. DMSO solutions of test compounds were added to the test wells of a microplate at a volume that produced a final concentration of DMSO of 0.2%. Monolayers of human ileocecal adenocarcinoma cells (HCT-8) were prepared by growth in RPMI 1640 medium in 96-Well tissue culture trays for 24 h. Oocysts of C. parvum were allowed to excyst in 10% bleach for 10 min prior to use. Monolayers were then infected with 2-3×10^4 oocysts/well and incubated in the presence or absence of compound for 48 h at 35° C. in 5% CO2 and 95% humidity. Background consisted of wells containing killed oocysts (freeze thaw cycle following 30 sec exposure to liquid nitrogen). Growth control wells were infected with 2-3×10^4 oocysts/well in the absence of test compounds. At the end of incubation, wells were washed and fixed by adding 100 uL of 4% formalin in phosphate buffered saline (pH 7.3) per well for 2 h. After blocking with 1% bovine serum albumin, and 0.002% Tween 20, 50 uL of rat anti-Cryptosporidium membrane protein antiserum was added. After 30 min, wells were washed in PBS and 50 uL of secondary antibody (goat anti-rat antibody conjugated with horseradish peroxidase) was added. After 20-30 min, wells were washed again in PBS and 50 uL of 3,3',5,5'-tetramethylbenzidine solution was added. Plates were allowed to develop for 10-15 min and the optical density was read at 630 nm. Percent inhibition was calculated by comparing the optical density of the drug treated group to that of the untreated control.

Helicobacter pylori = assay: In vitro inhibition of Helicobacter pylori (broth microdilution MIC); settings: for MIC: Helicobacter pylori
[3] = tested on: Mycobacterium bovis (rBCG-lux); assay: microbe, parasite or virus in culture; type: cell-based, Mycobacterium bovis bacille Calmette Guerin; settings: Mycobacterium tuberculosis variant bovis, 72 h; read-out: % of control, measured in RLUs
[4] = 72 h, read-out: MIC against Helicobacter pylori, strain 17 (Table 5A)
[5] = 72 h, read-out: MIC against Helicobacter pylori, strain 19 (Table 5A)
[6] = 72 h, read-out: MIC against Helicobacter pylori, strain 20 (Table 5A)
[7] = 72 h, read-out: MIC against Helicobacter pylori, strain 40 (Table 5A)
[8] = 72 h, read-out: MIC against Helicobacter pylori, strain 43 (Table 5A)
[9] = 72 h, read-out: MIC against Helicobacter pylori, strain 76 (Table 5A)
[10] = ATCC43504, 72 h, read-out: MIC against Helicobacter pylori, strain ATCC 43504 (Table 5A)

With `O=[N+]([O-])c1cn2c(n1)OC[C@@H](OCc1ccc(C(F)(F)F)cc1C(F)(F)F)C2` [PA-646] the MIC [1] was under 5 µg/mL and the MIC [2] was 3.12 µg/mL (≈ 7.59 µM).
Compound `O=[N+]([O-])c1cn2c(n1)OC[C@@H](OCc1ccccc1)C2` [PA-651] has an MIC [1] of over 5 µg/mL and an MIC [2] of 3.12 µg/mL (≈ 11.3 µM).
In the case of `COC(C(=O)N[C@@H]1COc2nc([N+](=O)[O-])cn2C1)(c1ccccc1)C(F)(F)F` (stereo partly drawn) [PA-1170], the “MIC, column A, 3(S) compounds” value [1] is reported as 0.13, the “Percent Inhibition of C. parvum” value (Cryptosporidium parvum; 25 μg/mL) is reported as -3% and the “Percent Inhibition of C. parvum” value (Cryptosporidium parvum; 50 μg/mL) is reported as -6%. The “Percent Inhibition of C. parvum” value (Cryptosporidium parvum; 100 μg/mL) was 16% and the “Percent Inhibition of C. parvum” value (Cryptosporidium parvum; 200 μg/mL) was -3.6%.
`Cc1ncc([N+](=O)[O-])n1CCO` [Metronidazole, reference compound] was tested, and the “MICs of control drugs relative to expected values” (Helicobacter pylori; H. pylori ATCC 43) was “within the expected values”, the MIC (Helicobacter pylori; [4]) was 32 µg/mL (≈ 187 µM) and the MIC (Helicobacter pylori; [5]) was 0.25 µg/mL (≈ 1.46 µM). It also gave an MIC (Helicobacter pylori; [6]) of 1 µg/mL (≈ 5.84 µM), an MIC (Helicobacter pylori; [7]) of 0.25 µg/mL (≈ 1.46 µM) and an MIC (Helicobacter pylori; [8]) of 0.032 µg/mL (≈ 0.187 µM). The MIC (Helicobacter pylori; [9]) was 32 µg/mL (≈ 187 µM), the MIC (Helicobacter pylori; 72 h, read-out: MIC against Helicobacter pylori, strain B40, Met-S, Clar-S (Table 5B)) was under 0.5 µg/mL and the MIC (Helicobacter pylori; 72 h, read-out: MIC against Helicobacter pylori, strain B76, Met-R, Clar-S (Table 5B)) was 8 µg/mL (≈ 46.7 µM). The MIC (Helicobacter pylori; 72 h, read-out: MIC against Helicobacter pylori, strain C1649, Met-R, Clar-R (Table 5B)) was 16 µg/mL (≈ 93.5 µM), the MIC (Helicobacter pylori; 72 h, read-out: MIC against Helicobacter pylori, strain C11403, Met-S, Clar-R (Table 5B)) was under 0.5 µg/mL and the MIC (Helicobacter pylori; 72 h, read-out: MIC against Helicobacter pylori, strain C19765 (Table 5B)) was 8 µg/mL (≈ 46.7 µM). It also gave an MIC (Helicobacter pylori; 72 h, read-out: MIC against Helicobacter pylori, strain RD26, Met-S, Clar-S (Table 5B)) of 1 µg/mL (≈ 5.84 µM), an MIC (Helicobacter pylori; 72 h, read-out: MIC against Helicobacter pylori, strain rd26, Met-S, Clar-S (Table 5B)) of 1 µg/mL (≈ 5.84 µM) and an MIC (Helicobacter pylori; [10]) of 128 µg/mL (≈ 748 µM). It also gave an MIC (Helicobacter pylori; ATCC43504, 72 h, read-out: MIC against Helicobacter pylori, strain ATCC 43504, Met-R, Clar-S (Table 5B)) of 128 to 256 µg/mL (≈ 748 to 1500 µM), an MIC (Helicobacter pylori; ATCC43526, 72 h, read-out: MIC against Helicobacter pylori, strain ATCC 43526, Met-R, Clar-S (Table 5B)) of 16 µg/mL (≈ 93.5 µM) and an MIC (Helicobacter pylori; ATCC43579, 72 h, read-out: MIC against Helicobacter pylori, strain ATCC 43579, Met-S, Clar-S (Table 5B)) of 2 µg/mL (≈ 11.7 µM). It also gave an MIC (Helicobacter pylori; ATCC43629, 72 h, read-out: MIC against Helicobacter pylori, strain ATCC 43629, Met-S, Clar-S (Table 5B)) of under 0.5 µg/mL.
`CCCCCCCCc1ccc(CO[C@@H]2COc3nc([N+](=O)[O-])cn3C2)cc1` [PA-1142] showed an MIC [1] of 0.06 µg/mL (≈ 0.155 µM), an MIC [2] of 1.5 µg/mL (≈ 3.87 µM) and an MIC (Helicobacter pylori; [4]) of over 25 µg/mL. For the same compound, the MIC (Helicobacter pylori; [5]) was 0.4 µg/mL (≈ 1.03 µM), the MIC (Helicobacter pylori; [6]) was 0.8 µg/mL (≈ 2.06 µM) and the MIC (Helicobacter pylori; [7]) was 1.5 µg/mL (≈ 3.87 µM). The MIC (Helicobacter pylori; [8]) was 0.4 µg/mL (≈ 1.03 µM), the MIC (Helicobacter pylori; [9]) was 3.12 µg/mL (≈ 8.05 µM) and the MIC (Helicobacter pylori; [10]) was over 25 µg/mL.
Compound `NCC[C@H](O)C(=O)N[C@@H]1C[C@H](N)[C@@H](O[C@H]2O[C@H](CN)[C@@H](O)[C@H](O)[C@H]2O)[C@H](O)[C@H]1O[C@H]1O[C@H](CO)[C@@H](O)[C@H](N)[C@H]1O` [Amikacin] has an activity at 0.15 µg/mL [3] of 52.9%, an activity at 0.31 µg/mL [3] of 31.7% and an activity at 0.62 µg/mL [3] of 18.9%. For the same compound, the activity at 1.25 µg/mL [3] was 18.1%, the activity at 2.5 µg/mL [3] was 10.7% and the activity at 5 µg/mL [3] was 5.2%.
`O=C(N[C@@H]1COc2nc([N+](=O)[O-])cn2C1)c1ccc(OCc2ccccc2)cc1` [PA-1125] showed an MIC [1] of 0.06 µg/mL (≈ 0.152 µM), an MIC [2] of 1.5 µg/mL (≈ 3.8 µM) and an MIC (Helicobacter pylori; [4]) of over 25 µg/mL. For the same compound, the MIC (Helicobacter pylori; [5]) was 0.8 µg/mL (≈ 2.03 µM), the MIC (Helicobacter pylori; [6]) was 0.8 µg/mL (≈ 2.03 µM) and the MIC (Helicobacter pylori; [7]) was 1.5 µg/mL (≈ 3.8 µM). For the same compound, the MIC (Helicobacter pylori; [8]) was 1.5 µg/mL (≈ 3.8 µM), the MIC (Helicobacter pylori; [9]) was over 25 µg/mL and the MIC (Helicobacter pylori; [10]) was over 25 µg/mL.
For `O=[N+]([O-])c1cn2c(n1)OC[C@@H](OCc1ccc(F)cc1)C2` [PA-655], the MIC [1] was over 5 µg/mL and the MIC [2] was 6.25 µg/mL (≈ 21.3 µM).
Work on `O=C(N[C@@H]1COc2nc([N+](=O)[O-])cn2C1)c1ccc(OC(F)(F)F)cc1` [PA-1150] yielded an MIC [1] of 0.5 µg/mL (≈ 1.34 µM), an inhibition at 25 µg/mL (Cryptosporidium parvum; 25 μg/mL) of 4.8% and an inhibition at 50 µg/mL (Cryptosporidium parvum; 50 μg/mL) of 1.7%. For the same compound, the inhibition at 100 µg/mL (Cryptosporidium parvum; 100 μg/mL) was 30% and the inhibition at 200 µg/mL (Cryptosporidium parvum; 200 μg/mL) was 96.2%.
Compound `O=[N+]([O-])c1cn2c(n1)OC[C@@H](OCc1ccc(Oc3ccccc3)cc1)C2` [PA-1122] has an MIC [1] of 0.06 µg/mL (≈ 0.163 µM), an inhibition at 25 µg/mL (Cryptosporidium parvum; 25 μg/mL) of -1.8% and an inhibition at 50 µg/mL (Cryptosporidium parvum; 50 μg/mL) of 17.8%. For the same compound, the inhibition at 100 µg/mL (Cryptosporidium parvum; 100 μg/mL) was 61% and the inhibition at 200 µg/mL (Cryptosporidium parvum; 200 μg/mL) was 83.5%.
In the case of `O=[N+]([O-])c1cn2c(n1)OC[C@@H](OCc1cccc(OCc3ccccc3)c1)C2` [PA-820], the MIC [1] is reported as under 5 µg/mL and the MIC [2] is reported as 3.12 µg/mL (≈ 8.18 µM).
